Measured values from US11807627B2, “Morphic forms of complement factor D inhibitors” (priority 2018, dated 2023).

How the values were obtained:
[1] = Caco2 permeability and efflux ratio; assay type: in vitro ADME; conditions: human, Caco-2; Caco2; read-out: Efflux ratio (B-A/A-B)
Caco2 = Caco2 permeability and efflux ratio; assay type: in vitro ADME; conditions: A-B
[2] = Polymorph study: evaporation; assay type: physicochemical
Method: Saturated solutions of Compound 3 produced from temperature cycling experiments were evaporated under ambient conditions. After approximately 4 days, observations were made, and solids recovered were analyzed by XRPD (Table 21).

[3] = Solution stress testing (acid, base, oxidative degradation); assay type: physicochemical
[4] = X-ray powder diffraction (XRPD); assay type: physicochemical; conditions: Table 27A
Method: Most XRPD patterns were collected with a PANalytical X′Pert PRO MPD diffractometer using an incident beam of Cu Kα radiation produced using a long, fine-focus source and a nickel filter. The diffractometer was configured using the symmetric Bragg-Brentano geometry. Prior to the analysis, a silicon specimen (NIST SRM 640e) was analyzed to verify the observed position of the Si 111 peak is consistent with the NIST-certified position. A specimen of the sample was prepared as a thin, circular layer centered on a silicon zero-background substrate. Antiscatter slits (SS) were used to minimize the background generated by air. Soller slits for the incident and diffracted beams were used to minimize broadening from axial divergence. Diffraction patterns were collected using a scanning position-sensitive detector (X′Celerator) located 240 mm from the sample and Data Collector software v. 2.2b.
A few XRPD patterns were collected with a PANalytical X′Pert PRO MPD diffractometer using an incident beam of Cu radiation produced using an Optix long, fine-focus source. […] Prior to the analysis, a silicon specimen (NIST SRM 640e) was analyzed to verify the observed position of the Si 111 peak is consistent with the NIST-certified position. A specimen of the sample was sandwiched between 3-μm-thick films and analyzed in transmission geometry. […]

Grinding study = assay type: physicochemical; conditions: pestle and mortar
Method: 10 mg of the appropriate Compound 3 material (detailed in Table 28) was weighed into separate HPLC vials. The solids were then ground using a pestle and mortar. Resulting materials were analyzed by XRPD (FIG. 47). From samples where mixtures of forms were used, mixtures of forms were recovered. Where all 3 forms were used, Form A was not returned, although it is possible that the already small particle size of Form A was reduced further by grinding and therefore not detected by XRPD analysis.

[5] = Competitive slurries (Example 11); assay type: physicochemical
Method: About 10 mg of Form A, Form B and Form J were weighed separately and the solids were combined into one vial. An appropriate volume of selected solvent was then added to form a slurry. Slurries were then agitated under ambient or elevated temperatures for about 48 hours. Post agitation, solids were isolated using centrifuge filtration and XRPD analysis was collected. Table 23 below details selected solvent systems and volumes used.
Solvent was re-introduced (volumes as per Table 24) to the samples and the samples were agitated for a further 72 hours as no single polymorphic form was returned from the experiments after 48 hours agitation. Solids were isolated using centrifuge filtration and XRPD analysis was collected.
Samples were repeated in 2-propanol and 2-propanol/heptane (70/30% v/v) at 60° C. using the above procedure. Samples were agitated for 24 hours and solvent volumes can be found in Table 24 below. […] Isolation of single forms via competitive slurrying appeared to be solvent dependent, as Forms B and J were produced from acetone and acetonitirile, respsectively. […] Both Forms A and B could be isolated from competitive slurrying experiments from different solvent systems but neither was exclusively predominant at a specific temperature.
An additional competitive slurry experiment was conducted. Approximately 20 mg of Form A and Form B were weighed into separate vials. […]

[6] = Storage stability of Compound 3 forms (80° C., 40° C./75% RH, 25° C./60% RH, ambient); assay type: physicochemical

CC(=O)c1nn(CC(=O)N2[C@H](C(=O)Nc3nc(Br)ccc3C)C[C@@]3(C)C[C@@H]23)c2ccc(-c3cnc(C)nc3)cc12 [Compound 3, (1R,3S,5R)-2-(2-(3-acetyl-5-(2-methylpyrimidin-5-yl)-1H-indazol-1-yl)acetyl)-N-(6-bromo-3-methylpyridin-2-yl)-5-methyl-2-azabicyclo[3.1.0]hexane-3-carboxamide]
efflux ratio [1]: 2.2
Caco2: A-B (Caco2): Caco2: A-B ~17 × 10^−6 cm/s
Crystallization technique: Evaporations ([2]; 1-Butanol): Amorphous
Crystallization technique: Evaporations ([2]; 2-Methyl Tetrahydrofuran, WC = weakly crystalline): Form A (WC)
Crystallization technique: Evaporations ([2]; 2-Propanol): Amorphous
Crystallization technique: Evaporations ([2]; 40% Ethanol / 60% Water (% v/v) calc. aw = 0.7): Amorphous
Crystallization technique: Evaporations ([2]; 50% 2-Propanol / 50% Heptane (% v/v)): Amorphous
Crystallization technique: Evaporations ([2]; 50% Acetonitrile / 50% Water (% v/v) calc. aw = 0.9): Amorphous
Crystallization technique: Evaporations ([2]; 50% Ethanol / 50% Heptane (% v/v)): Amorphous
Crystallization technique: Evaporations ([2]; 70% 2-Propanol / 30% Water (% v/v) aw = 0.8): Amorphous
Crystallization technique: Evaporations ([2]; 95% 2-Propanol / 5% Heptane (% v/v), WC = weakly crystalline): Form A (WC)
Crystallization technique: Evaporations ([2]; 95% Heptane / 5% 2-Propanol (% v/v)): Amorphous
Crystallization technique: Evaporations ([2]; 95% Methanol / 5% Water (% v/v) calc. aw = 0.2): Amorphous
Crystallization technique: Evaporations ([2]; Acetone, WC = weakly crystalline): Form A (WC)
Crystallization technique: Evaporations ([2]; Acetonitrile): Amorphous
Crystallization technique: Evaporations ([2]; Ethanol, WC = weakly crystalline): Form A (WC)
Crystallization technique: Evaporations ([2]; Ethyl Acetate (dry)): Amorphous
Crystallization technique: Evaporations ([2]; Methanol): Amorphous
Crystallization technique: Evaporations ([2]; Methylethyl Ketone): Amorphous
Crystallization technique: Evaporations ([2]; Methylisobutyl Ketone): Amorphous
Crystallization technique: Evaporations ([2]; Toluene): Amorphous
Crystallization technique: Evaporations ([2]; n-Heptane): Amorphous
Crystallization technique: Evaporations ([2]; tert-Butylmethyl Ether, WC = weakly crystalline): WC (Pattern E)
Solution stress testing: Acid degradation ([3]; 0.1N HCl): Degradation observed
Solution stress testing: Base degradation ([3]; 0.1N NaOH): Degradation observed
Solution stress testing: Oxidative degradation ([3]; H2O2): Not susceptible to oxidation

CC(=O)c1nn(CC(=O)N2[C@H](C(=O)Nc3nc(Br)ccc3C)C[C@@]3(C)C[C@@H]23)c2ccc(-c3cnc(C)nc3)cc12 [Form B]
XRPD [4]: Form B
Form change upon grinding (XRPD) (Grinding study): did not change form
Relative stability in competitive slurry ([5]; Form A and Form B in saturated Compound 3 solutions, ambient and elevated temperature, about 2 weeks): likely the most thermodynamically stable form

CC(=O)c1nn(CC(=O)N2[C@H](C(=O)Nc3nc(Br)ccc3C)C[C@@]3(C)C[C@@H]23)c2ccc(-c3cnc(C)nc3)cc12 [Compound 3 Form A]
Relative stability in competitive slurry ([5]; Form A, Form B and Form J, conversion of Form B to Form A in acetone over 72 hours): may be the most stable form
1 week stability: 25° C./60% RH XRPD (uncapped) ([6]; 1 week, WC = weakly crystalline): WC Form A
Stability: form by XRPD after storage ([6]; 25° C./60% RH, uncapped vial): weakly crystalline Form A
